We go through five molecules from the supplement of paper PMC10307832.

Each structure is given as a SMILES string.

The first assay deals with EKVX. In words: relative viability (nuclei count vs DMSO), 5 days (fraction); higher = more cells survive. Particulars: first compound 0.08 µM. In short, it runs like this:
(§1)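 Dosing by pin tool came one day after lung cancer cell lines were seeded in 1536-well plates, using either one drug or a fixed anchor-drug dose plus five library-drug doses (not always all listed) in √10 steps. After 5 days, nuclei were counted on 4× images. Relative viability is treated-well nuclei count divided by vehicle-well nuclei count, and values are medians of duplicate plates.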
Take `CCCCCCCCCCCC1=C(O)C(=O)C=C(O)C1=O` [Embelin] + Nc1ncn([C@H]2C[C@H](O)[C@@H](CO)O2)c(=O)n1 [Decitabine] (partner 2 µM): the relative viability amounted to 0.41.
Still for that read-out and setting: the figure for `CCCCCCCCCCCC1=C(O)C(=O)C=C(O)C1=O` [Embelin] + COc1cccc2cc(-c3nc([C@H]4CC[C@H](C(=O)O)CC4)n4ncnc(N)c34)[nH]c12 [OSI-027] (partner 0.5 µM) is 0.715.
The molecule `CCCCCCCCCCCC1=C(O)C(=O)C=C(O)C1=O` [Embelin] + Nc1nc2[nH]cc(CCc3ccc(C(=O)N[C@@H](CCC(=O)O)C(=O)O)cc3)c2c(=O)[nH]1 [Pemetrexed] (partner 0.2 µM) yielded a relative viability of 0.406.

Staying with this assay, now noted: first compound 0.8 µM.
`CCCCCCCCCCCC1=C(O)C(=O)C=C(O)C1=O` [Embelin] + Cc1cc(Nc2cc(N3CCN(C)CC3)nc(Sc3ccc(NC(=O)C4CC4)cc3)n2)n[nH]1 [Tozasertib] (partner 0.1 µM): the relative viability worked out at 0.381.
In the case of `CCCCCCCCCCCC1=C(O)C(=O)C=C(O)C1=O` [Embelin] + CC(=O)Nc1cccc(-n2c(=O)n(C3CC3)c(=O)c3c(Nc4ccc(I)cc4F)n(C)c(=O)c(C)c32)c1 [Trametinib] (partner 0.02 µM), the relative viability came out at 0.472.
Still for that read-out and setting: then `CCCCCCCCCCCC1=C(O)C(=O)C=C(O)C1=O` [Embelin] + Nc1ncn([C@H]2C[C@H](O)[C@@H](CO)O2)c(=O)n1 [Decitabine] (partner 2 µM), with 0.4; and `CCCCCCCCCCCC1=C(O)C(=O)C=C(O)C1=O` [Embelin] + COc1cccc2cc(-c3nc([C@H]4CC[C@H](C(=O)O)CC4)n4ncnc(N)c34)[nH]c12 [OSI-027] (partner 0.5 µM), with 0.677.
On the same count and under the same terms, the figure for `CCCCCCCCCCCC1=C(O)C(=O)C=C(O)C1=O` [Embelin] + Nc1nc2[nH]cc(CCc3ccc(C(=O)N[C@@H](CCC(=O)O)C(=O)O)cc3)c2c(=O)[nH]1 [Pemetrexed] (partner 0.2 µM) is 0.465.

The same assay, now with this note: first compound 2.53 µM.
`CCCCCCCCCCCC1=C(O)C(=O)C=C(O)C1=O` [Embelin] + Cc1cc(Nc2cc(N3CCN(C)CC3)nc(Sc3ccc(NC(=O)C4CC4)cc3)n2)n[nH]1 [Tozasertib] (partner 0.1 µM): the relative viability was found to be 0.412.
For `CCCCCCCCCCCC1=C(O)C(=O)C=C(O)C1=O` [Embelin] + CC(=O)Nc1cccc(-n2c(=O)n(C3CC3)c(=O)c3c(Nc4ccc(I)cc4F)n(C)c(=O)c(C)c32)c1 [Trametinib] (partner 0.02 µM), the relative viability was 0.275.
On the same count and under the same terms, the figure for `CCCCCCCCCCCC1=C(O)C(=O)C=C(O)C1=O` [Embelin] + Nc1ncn([C@H]2C[C@H](O)[C@@H](CO)O2)c(=O)n1 [Decitabine] (partner 2 µM) is 0.314.
The same measure, in the same setting: the figure for `CCCCCCCCCCCC1=C(O)C(=O)C=C(O)C1=O` [Embelin] + COc1cccc2cc(-c3nc([C@H]4CC[C@H](C(=O)O)CC4)n4ncnc(N)c34)[nH]c12 [OSI-027] (partner 0.5 µM) is 0.789.
The same measure, in the same setting: the figure for `CCCCCCCCCCCC1=C(O)C(=O)C=C(O)C1=O` [Embelin] + Nc1nc2[nH]cc(CCc3ccc(C(=O)N[C@@H](CCC(=O)O)C(=O)O)cc3)c2c(=O)[nH]1 [Pemetrexed] (partner 0.2 µM) is 0.368.

Still in this assay, the particulars now being: first compound 8 µM.
Turning to `CCCCCCCCCCCC1=C(O)C(=O)C=C(O)C1=O` [Embelin] + Cc1cc(Nc2cc(N3CCN(C)CC3)nc(Sc3ccc(NC(=O)C4CC4)cc3)n2)n[nH]1 [Tozasertib] (partner 0.1 µM), the relative viability turned out to be 0.417.
Still for that read-out and setting: then `CCCCCCCCCCCC1=C(O)C(=O)C=C(O)C1=O` [Embelin] + CC(=O)Nc1cccc(-n2c(=O)n(C3CC3)c(=O)c3c(Nc4ccc(I)cc4F)n(C)c(=O)c(C)c32)c1 [Trametinib] (partner 0.02 µM), with 0.429; and `CCCCCCCCCCCC1=C(O)C(=O)C=C(O)C1=O` [Embelin] + Nc1ncn([C@H]2C[C@H](O)[C@@H](CO)O2)c(=O)n1 [Decitabine] (partner 2 µM), with 0.313; and `CCCCCCCCCCCC1=C(O)C(=O)C=C(O)C1=O` [Embelin] + COc1cccc2cc(-c3nc([C@H]4CC[C@H](C(=O)O)CC4)n4ncnc(N)c34)[nH]c12 [OSI-027] (partner 0.5 µM), with 0.743.
The same measure, in the same setting: then `CCCCCCCCCCCC1=C(O)C(=O)C=C(O)C1=O` [Embelin] + Nc1nc2[nH]cc(CCc3ccc(C(=O)N[C@@H](CCC(=O)O)C(=O)O)cc3)c2c(=O)[nH]1 [Pemetrexed] (partner 0.2 µM), with 0.407.

Another assay concerns NCI-H358. The assay is described as above. Particulars: first compound 0.08 µM. Put shortly:
as §1
`CCCCCCCCCCCC1=C(O)C(=O)C=C(O)C1=O` [Embelin] + Cc1cc(Nc2cc(N3CCN(C)CC3)nc(Sc3ccc(NC(=O)C4CC4)cc3)n2)n[nH]1 [Tozasertib] (partner 0.1 µM) gave a relative viability of 0.116.
Still for that read-out and setting: the figure for `CCCCCCCCCCCC1=C(O)C(=O)C=C(O)C1=O` [Embelin] + CC(=O)Nc1cccc(-n2c(=O)n(C3CC3)c(=O)c3c(Nc4ccc(I)cc4F)n(C)c(=O)c(C)c32)c1 [Trametinib] (partner 0.02 µM) is 0.137; for `CCCCCCCCCCCC1=C(O)C(=O)C=C(O)C1=O` [Embelin] + Nc1ncn([C@H]2C[C@H](O)[C@@H](CO)O2)c(=O)n1 [Decitabine] (partner 2 µM) it is 0.2.
Still for that read-out and setting: the figure for `CCCCCCCCCCCC1=C(O)C(=O)C=C(O)C1=O` [Embelin] + COc1cccc2cc(-c3nc([C@H]4CC[C@H](C(=O)O)CC4)n4ncnc(N)c34)[nH]c12 [OSI-027] (partner 0.5 µM) is 0.774; for `CCCCCCCCCCCC1=C(O)C(=O)C=C(O)C1=O` [Embelin] + Nc1nc2[nH]cc(CCc3ccc(C(=O)N[C@@H](CCC(=O)O)C(=O)O)cc3)c2c(=O)[nH]1 [Pemetrexed] (partner 0.2 µM) it is 0.217.

Staying with this assay, now noted: first compound 0.8 µM.
Consider `CCCCCCCCCCCC1=C(O)C(=O)C=C(O)C1=O` [Embelin] + Cc1cc(Nc2cc(N3CCN(C)CC3)nc(Sc3ccc(NC(=O)C4CC4)cc3)n2)n[nH]1 [Tozasertib] (partner 0.1 µM), for which the relative viability is 0.0994.
Same read-out and setting: the figure for `CCCCCCCCCCCC1=C(O)C(=O)C=C(O)C1=O` [Embelin] + CC(=O)Nc1cccc(-n2c(=O)n(C3CC3)c(=O)c3c(Nc4ccc(I)cc4F)n(C)c(=O)c(C)c32)c1 [Trametinib] (partner 0.02 µM) is 0.154; for `CCCCCCCCCCCC1=C(O)C(=O)C=C(O)C1=O` [Embelin] + Nc1ncn([C@H]2C[C@H](O)[C@@H](CO)O2)c(=O)n1 [Decitabine] (partner 2 µM) it is 0.233.
On the same count and under the same terms, the figure for `CCCCCCCCCCCC1=C(O)C(=O)C=C(O)C1=O` [Embelin] + COc1cccc2cc(-c3nc([C@H]4CC[C@H](C(=O)O)CC4)n4ncnc(N)c34)[nH]c12 [OSI-027] (partner 0.5 µM) is 1.01.
The same measure, in the same setting: then `CCCCCCCCCCCC1=C(O)C(=O)C=C(O)C1=O` [Embelin] + Nc1nc2[nH]cc(CCc3ccc(C(=O)N[C@@H](CCC(=O)O)C(=O)O)cc3)c2c(=O)[nH]1 [Pemetrexed] (partner 0.2 µM), with 0.193.

Still in this assay, the particulars now being: first compound 2.53 µM.
In turn, `CCCCCCCCCCCC1=C(O)C(=O)C=C(O)C1=O` [Embelin] + Cc1cc(Nc2cc(N3CCN(C)CC3)nc(Sc3ccc(NC(=O)C4CC4)cc3)n2)n[nH]1 [Tozasertib] (partner 0.1 µM) registered a relative viability of 0.108.
